# In the supplement of paper PMC4862054:
# Test system: BT-549
# Assay: normalised viability (% of control), CellTiter-Blue; higher = more viable cells (100 = DMSO, 0 = benzethonium chloride kill control)
# Conditions: 0.025 nM; incubation time: 72 h
# How it was run: (§1)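 Breast cancer cell lines in 20 µl suspension were seeded onto 384-well plates pre-loaded with compound dissolved in 5 µl medium, then incubated 72 h. CellTiter-Blue reagent (2.5 µl) was added for 2 h at 37 °C and fluorescence read at 560/590 nm. Each plate was normalised to vehicle (100) and a positive kill control (0), with Z'-factor quality control. The value is normalised viability at one listed concentration of the series.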
row,Compound,normalised viability [%]
1,CC(=O)Nc1cccc(-n2c(=O)n(C3CC3)c(=O)c3c(Nc4ccc(I)cc4F)n(C)c(=O)c(C)c32)c1,104

# Same assay, conditions: 0.1 nM; incubation time: 72 h
row,Compound,normalised viability [%]
1,Cc1cnc(NC(=O)Nc2cc(Br)c(C)cc2OC[C@@H]2CNCCO2)cn1,87.9

# Same assay, conditions: 1 nM; incubation time: 72 h
row,Compound,normalised viability [%]
1,COc1cc2nccc(Oc3ccc(NC(=O)Nc4cc(C)on4)c(Cl)c3)c2cc1OC [Tivozanib],81.1
2,O=C(Cc1ccc(-c2ccc(OCCN3CCOCC3)cc2)cn1)NCc1ccccc1 [KX2-391],124
3,CC1=C(/C=C/C(C)=C/C=C/C(C)=C/C(=O)O)C(C)(C)CCC1 [Tretinoin],98.4
4,Nc1ccccc1NC(=O)c1ccc(CNC(=O)OCc2cccnc2)cc1 [Entinostat],107
5,C=CC(=O)Nc1cc2c(Nc3ccc(F)c(Cl)c3)ncnc2cc1OCCCN1CCOCC1 [Canertinib],110
6,CC[C@H](Nc1ncnc2[nH]cnc12)c1nc2cccc(F)c2c(=O)n1-c1ccccc1 [CAL-101],97.9
7,CCCCC(=O)OCC(=O)[C@]1(O)Cc2c(O)c3c(c(O)c2[C@@H](O[C@H]2C[C@H](NC(=O)C(F)(F)F)[C@H](O)[C@H](C)O2)C1)C(=O)c1c(OC)cccc1C3=O [Valrubicin],107

# Test system: CAL-120
# Assay: as above
# Conditions: 0.025 nM; incubation time: 72 h
# How it was run: as §1
row,Compound,normalised viability [%]
1,CC(=O)Nc1cccc(-n2c(=O)n(C3CC3)c(=O)c3c(Nc4ccc(I)cc4F)n(C)c(=O)c(C)c32)c1,104

# Same assay, conditions: 0.1 nM; incubation time: 72 h
row,Compound,normalised viability [%]
1,Cc1cnc(NC(=O)Nc2cc(Br)c(C)cc2OC[C@@H]2CNCCO2)cn1,98.6

# Same assay, conditions: 1 nM; incubation time: 72 h
row,Compound,normalised viability [%]
1,COc1cc2nccc(Oc3ccc(NC(=O)Nc4cc(C)on4)c(Cl)c3)c2cc1OC [Tivozanib],106
2,O=C(Cc1ccc(-c2ccc(OCCN3CCOCC3)cc2)cn1)NCc1ccccc1 [KX2-391],93.8
3,CC1=C(/C=C/C(C)=C/C=C/C(C)=C/C(=O)O)C(C)(C)CCC1 [Tretinoin],86.9
4,Nc1ccccc1NC(=O)c1ccc(CNC(=O)OCc2cccnc2)cc1 [Entinostat],83.6
5,C=CC(=O)Nc1cc2c(Nc3ccc(F)c(Cl)c3)ncnc2cc1OCCCN1CCOCC1 [Canertinib],84.4
6,CC[C@H](Nc1ncnc2[nH]cnc12)c1nc2cccc(F)c2c(=O)n1-c1ccccc1 [CAL-101],104
7,CCCCC(=O)OCC(=O)[C@]1(O)Cc2c(O)c3c(c(O)c2[C@@H](O[C@H]2C[C@H](NC(=O)C(F)(F)F)[C@H](O)[C@H](C)O2)C1)C(=O)c1c(OC)cccc1C3=O [Valrubicin],92.9

# Test system: CAL-148
# Assay: as above
# Conditions: 0.025 nM; incubation time: 72 h
# How it was run: as §1
row,Compound,normalised viability [%]
1,CC(=O)Nc1cccc(-n2c(=O)n(C3CC3)c(=O)c3c(Nc4ccc(I)cc4F)n(C)c(=O)c(C)c32)c1,107

# Same assay, conditions: 0.1 nM; incubation time: 72 h
row,Compound,normalised viability [%]
1,Cc1cnc(NC(=O)Nc2cc(Br)c(C)cc2OC[C@@H]2CNCCO2)cn1,99.8

# Same assay, conditions: 1 nM; incubation time: 72 h
row,Compound,normalised viability [%]
1,COc1cc2nccc(Oc3ccc(NC(=O)Nc4cc(C)on4)c(Cl)c3)c2cc1OC [Tivozanib],103
2,O=C(Cc1ccc(-c2ccc(OCCN3CCOCC3)cc2)cn1)NCc1ccccc1 [KX2-391],107
3,CC1=C(/C=C/C(C)=C/C=C/C(C)=C/C(=O)O)C(C)(C)CCC1 [Tretinoin],103
4,Nc1ccccc1NC(=O)c1ccc(CNC(=O)OCc2cccnc2)cc1 [Entinostat],95.8
5,C=CC(=O)Nc1cc2c(Nc3ccc(F)c(Cl)c3)ncnc2cc1OCCCN1CCOCC1 [Canertinib],99.5
6,CC[C@H](Nc1ncnc2[nH]cnc12)c1nc2cccc(F)c2c(=O)n1-c1ccccc1 [CAL-101],91.3
7,CCCCC(=O)OCC(=O)[C@]1(O)Cc2c(O)c3c(c(O)c2[C@@H](O[C@H]2C[C@H](NC(=O)C(F)(F)F)[C@H](O)[C@H](C)O2)C1)C(=O)c1c(OC)cccc1C3=O [Valrubicin],88.8

# Test system: CAL-51
# Assay: as above
# Conditions: 0.025 nM; incubation time: 72 h
# How it was run: as §1
row,Compound,normalised viability [%]
1,CC(=O)Nc1cccc(-n2c(=O)n(C3CC3)c(=O)c3c(Nc4ccc(I)cc4F)n(C)c(=O)c(C)c32)c1,98.7

# Same assay, conditions: 0.1 nM; incubation time: 72 h
row,Compound,normalised viability [%]
1,Cc1cnc(NC(=O)Nc2cc(Br)c(C)cc2OC[C@@H]2CNCCO2)cn1,86.8

# Same assay, conditions: 1 nM; incubation time: 72 h
row,Compound,normalised viability [%]
1,COc1cc2nccc(Oc3ccc(NC(=O)Nc4cc(C)on4)c(Cl)c3)c2cc1OC [Tivozanib],101
2,O=C(Cc1ccc(-c2ccc(OCCN3CCOCC3)cc2)cn1)NCc1ccccc1 [KX2-391],106
3,CC1=C(/C=C/C(C)=C/C=C/C(C)=C/C(=O)O)C(C)(C)CCC1 [Tretinoin],93.5
4,Nc1ccccc1NC(=O)c1ccc(CNC(=O)OCc2cccnc2)cc1 [Entinostat],110
5,C=CC(=O)Nc1cc2c(Nc3ccc(F)c(Cl)c3)ncnc2cc1OCCCN1CCOCC1 [Canertinib],109
6,CC[C@H](Nc1ncnc2[nH]cnc12)c1nc2cccc(F)c2c(=O)n1-c1ccccc1 [CAL-101],88.6
7,CCCCC(=O)OCC(=O)[C@]1(O)Cc2c(O)c3c(c(O)c2[C@@H](O[C@H]2C[C@H](NC(=O)C(F)(F)F)[C@H](O)[C@H](C)O2)C1)C(=O)c1c(OC)cccc1C3=O [Valrubicin],89.7

# Test system: CAL-85-1
# Assay: as above
# Conditions: 0.025 nM; incubation time: 72 h
# How it was run: as §1
row,Compound,normalised viability [%]
1,CC(=O)Nc1cccc(-n2c(=O)n(C3CC3)c(=O)c3c(Nc4ccc(I)cc4F)n(C)c(=O)c(C)c32)c1,107

# Same assay, conditions: 0.1 nM; incubation time: 72 h
row,Compound,normalised viability [%]
1,Cc1cnc(NC(=O)Nc2cc(Br)c(C)cc2OC[C@@H]2CNCCO2)cn1,96.7

# Same assay, conditions: 1 nM; incubation time: 72 h
row,Compound,normalised viability [%]
1,COc1cc2nccc(Oc3ccc(NC(=O)Nc4cc(C)on4)c(Cl)c3)c2cc1OC [Tivozanib],114
2,O=C(Cc1ccc(-c2ccc(OCCN3CCOCC3)cc2)cn1)NCc1ccccc1 [KX2-391],84.6
3,CC1=C(/C=C/C(C)=C/C=C/C(C)=C/C(=O)O)C(C)(C)CCC1 [Tretinoin],87.1
4,Nc1ccccc1NC(=O)c1ccc(CNC(=O)OCc2cccnc2)cc1 [Entinostat],97
5,C=CC(=O)Nc1cc2c(Nc3ccc(F)c(Cl)c3)ncnc2cc1OCCCN1CCOCC1 [Canertinib],80
6,CC[C@H](Nc1ncnc2[nH]cnc12)c1nc2cccc(F)c2c(=O)n1-c1ccccc1 [CAL-101],90
7,CCCCC(=O)OCC(=O)[C@]1(O)Cc2c(O)c3c(c(O)c2[C@@H](O[C@H]2C[C@H](NC(=O)C(F)(F)F)[C@H](O)[C@H](C)O2)C1)C(=O)c1c(OC)cccc1C3=O [Valrubicin],83.5

# Test system: DU-4475
# Assay: as above
# Conditions: 0.025 nM; incubation time: 72 h
# How it was run: as §1
row,Compound,normalised viability [%]
1,CC(=O)Nc1cccc(-n2c(=O)n(C3CC3)c(=O)c3c(Nc4ccc(I)cc4F)n(C)c(=O)c(C)c32)c1,105

# Same assay, conditions: 0.1 nM; incubation time: 72 h
row,Compound,normalised viability [%]
1,Cc1cnc(NC(=O)Nc2cc(Br)c(C)cc2OC[C@@H]2CNCCO2)cn1,108

# Same assay, conditions: 1 nM; incubation time: 72 h
row,Compound,normalised viability [%]
1,COc1cc2nccc(Oc3ccc(NC(=O)Nc4cc(C)on4)c(Cl)c3)c2cc1OC [Tivozanib],102
2,O=C(Cc1ccc(-c2ccc(OCCN3CCOCC3)cc2)cn1)NCc1ccccc1 [KX2-391],103
3,CC1=C(/C=C/C(C)=C/C=C/C(C)=C/C(=O)O)C(C)(C)CCC1 [Tretinoin],91.8
4,Nc1ccccc1NC(=O)c1ccc(CNC(=O)OCc2cccnc2)cc1 [Entinostat],119
5,C=CC(=O)Nc1cc2c(Nc3ccc(F)c(Cl)c3)ncnc2cc1OCCCN1CCOCC1 [Canertinib],98.5
6,CC[C@H](Nc1ncnc2[nH]cnc12)c1nc2cccc(F)c2c(=O)n1-c1ccccc1 [CAL-101],106
7,CCCCC(=O)OCC(=O)[C@]1(O)Cc2c(O)c3c(c(O)c2[C@@H](O[C@H]2C[C@H](NC(=O)C(F)(F)F)[C@H](O)[C@H](C)O2)C1)C(=O)c1c(OC)cccc1C3=O [Valrubicin],93.9

# Test system: HCC1143
# Assay: as above
# Conditions: 0.025 nM; incubation time: 72 h
# How it was run: as §1
row,Compound,normalised viability [%]
1,CC(=O)Nc1cccc(-n2c(=O)n(C3CC3)c(=O)c3c(Nc4ccc(I)cc4F)n(C)c(=O)c(C)c32)c1,102

# Same assay, conditions: 0.1 nM; incubation time: 72 h
row,Compound,normalised viability [%]
1,Cc1cnc(NC(=O)Nc2cc(Br)c(C)cc2OC[C@@H]2CNCCO2)cn1,115

# Same assay, conditions: 1 nM; incubation time: 72 h
row,Compound,normalised viability [%]
1,COc1cc2nccc(Oc3ccc(NC(=O)Nc4cc(C)on4)c(Cl)c3)c2cc1OC [Tivozanib],103
2,O=C(Cc1ccc(-c2ccc(OCCN3CCOCC3)cc2)cn1)NCc1ccccc1 [KX2-391],92.7
3,CC1=C(/C=C/C(C)=C/C=C/C(C)=C/C(=O)O)C(C)(C)CCC1 [Tretinoin],94.9
4,Nc1ccccc1NC(=O)c1ccc(CNC(=O)OCc2cccnc2)cc1 [Entinostat],95.7
5,C=CC(=O)Nc1cc2c(Nc3ccc(F)c(Cl)c3)ncnc2cc1OCCCN1CCOCC1 [Canertinib],90.2
6,CC[C@H](Nc1ncnc2[nH]cnc12)c1nc2cccc(F)c2c(=O)n1-c1ccccc1 [CAL-101],94
7,CCCCC(=O)OCC(=O)[C@]1(O)Cc2c(O)c3c(c(O)c2[C@@H](O[C@H]2C[C@H](NC(=O)C(F)(F)F)[C@H](O)[C@H](C)O2)C1)C(=O)c1c(OC)cccc1C3=O [Valrubicin],86.5

# Test system: HCC1599
# Assay: as above
# Conditions: 0.025 nM; incubation time: 72 h
# How it was run: as §1
row,Compound,normalised viability [%]
1,CC(=O)Nc1cccc(-n2c(=O)n(C3CC3)c(=O)c3c(Nc4ccc(I)cc4F)n(C)c(=O)c(C)c32)c1,104

# Same assay, conditions: 0.1 nM; incubation time: 72 h
row,Compound,normalised viability [%]
1,Cc1cnc(NC(=O)Nc2cc(Br)c(C)cc2OC[C@@H]2CNCCO2)cn1,114

# Same assay, conditions: 1 nM; incubation time: 72 h
row,Compound,normalised viability [%]
1,COc1cc2nccc(Oc3ccc(NC(=O)Nc4cc(C)on4)c(Cl)c3)c2cc1OC [Tivozanib],115
2,O=C(Cc1ccc(-c2ccc(OCCN3CCOCC3)cc2)cn1)NCc1ccccc1 [KX2-391],85.8
